One test has as its target T1, rat 5HT7 receptor (Rattus norvegicus, UniProt P32305).
T1 construct: expressed in transfected cells; host or cells: CHO cells
In words: Binding of [3H] LSD to rat 5HT7 receptor expressed in CHO cells. How it is done:
Binding of 2.0 nM [^3 H] LSD to a rat 5HT7 receptor expressed in CHO cells was measured for 60 minutes at 37° C. in 50 mM Tris-HCl buffer, pH 7.4, containing 10 mM MgCl2 and 0.5 mM EDTA. The reaction was terminated by rapid vacuum filtration onto glass fiber filters pretreated with 0.1% polyethyleneimine. Binding studies were made in duplicate in the absence of the drug and in the presence of between 6 and 8 concentrations of epinastine between 3 nM and 10 μM. Radioactivity trapped on the filters in the presence of each drug concentration was measured and compared with control values in order to ascertain interaction of the drug with the cloned 5-HT7 receptor site. Non-specific binding was determined in the presence of 5-carboxamidotryptamine (5-CT). The IC50 for the displacement of radiolabelled ligand was determined by graphical extrapolation and Ki values were calculated after correction for the radioligand occupancy shift by the Cheng and Prusoff equation (see Biochem. Pharmacol. 22, (1973): 3099-3108). Three experiments were carried out.

The next test relates to Male Wistar rats. How it is done:
Male Wistar rats weighing 175-190 g were anaesthetised with nembutal 50 mg/kg i.p. and the jugular vein was cannulated for injection of drugs. The animals were placed in a stereotaxic frame. Symmetrical boreholes were drilled 3.0 mm laterally and 3.2 mm posteriorly from bregma and the electrodes were lowered 9.5 mm from dura mater. The test compound epinastine or control solution were administered intravenously 10 min prior to electrical stimulation of the right trigeminal ganglion (5 min; 2.0 mA, 5 Hz, 5 ms duration and Evans blue (30 mg/kg i.v.), was given 5 min prior to electrical stimulation as a marker of plasma protein extravasation. 15 minutes after the end of the stimulation period the animals were perfused with 50 ml saline via the left cardiac ventricle to remove intravascular Evans blue. The dura mater was removed, blotted dry and weighed. Tissue Evans blue was extracted in 0.3 ml formamide at 50° C. for 24 h. Dye concentrations were measured with a spectrophotometer at 620 nm wavelength, interpolated on a standard curve and expressed as ng Evans blue content per mg tissue weight.
Extravasation was expressed as the quotient calculated by dividing the Evan's blue content of the stimulated side by the Evan's blue content of the unstimulated side. Results are expressed as means.

The subject of test [1] is rats of the strain Chbb:THOM. The test can be described thus: animal or person. Particulars: for Mean value of pain threshold: 3 hours after yeast. How it is done:
The method of Randall and Selitto was modified through use of the Analgesia meter by Basile of Milan.
Groups of 10 fasted rats of the strain Chbb:THOM (weight 110-140 g, 5 male 5 female) were dosed orally with it Natrosol 250 HX, 1 ml/100 g body weight, containing 0, 0.3, 1.0, 3.0 or 10 mg/kg epinastine (racemic mixture). 1 hour later the rats were injected subplantar with a suspension of yeast cells in a volume 0.1 ml into the right hind paw. 3 hours after injection of the yeast suspension, the pain threshold was determined by increasing the pressure on the inflamed paw until a sign of pain was produced. From the pain threshold measured after the different doses of the epinastine, linear regression analysis was used to determine an ED50.

The mark [2] stands for this setting: individual values of the three experiments, read-out: Measured Ki values.
The mark [3] stands for this setting: mean of three experiments, 2.0 nM [3H] LSD, 60 minutes at 37° C., read-out: mean Ki value.

“And” between values parts separate entries of the source, which are not always exact repeats. Identical values can stand only once. Counter-ions that a name gives are not always drawn. Like-named read-outs stand apart in the source and are kept apart here.

T1 sequence (P32305 whole entry): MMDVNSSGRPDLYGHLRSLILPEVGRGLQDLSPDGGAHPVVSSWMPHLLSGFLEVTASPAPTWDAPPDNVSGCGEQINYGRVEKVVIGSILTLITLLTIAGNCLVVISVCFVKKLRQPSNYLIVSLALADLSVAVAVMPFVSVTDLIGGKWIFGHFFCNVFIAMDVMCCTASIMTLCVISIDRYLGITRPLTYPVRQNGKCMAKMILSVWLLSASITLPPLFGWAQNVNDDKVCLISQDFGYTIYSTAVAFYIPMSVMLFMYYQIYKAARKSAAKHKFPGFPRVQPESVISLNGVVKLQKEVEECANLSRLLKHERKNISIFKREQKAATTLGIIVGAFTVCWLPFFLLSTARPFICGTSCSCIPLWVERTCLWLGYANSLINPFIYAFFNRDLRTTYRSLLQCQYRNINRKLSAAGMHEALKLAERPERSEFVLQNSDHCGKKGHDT

Turning to `COc1ccc(CN(CCN(C)C)c2ccccn2)cc1` [Mepyramine], the inhibition constant (Ki) (as a rule, a measure of affinity in units of concentration, obtained from inhibition or displacement) at rat 5HT7 receptor (setting [2]) is 2660 nM and 747 nM and 1330 nM.

As to `NC1=NCC2c3ccccc3Cc3ccccc3N12` (single isomer, unassigned; (-)) [Epinastine (-) Enantiomer, (-)-3-Amino-9,13b-dihydro-1H-dibenz-[c,f]-imidazo[1,5a]-azepine-hydrochloride], the Ki at rat 5HT7 receptor (setting [2]) was 155 nM and 204 nM and 207 nM; at rat 5HT7 receptor (setting [3]), 189 nM.

For `CN1CCC(=C2c3ccccc3CC(=O)c3sccc32)CC1` [Ketotifen], the Ki at rat 5HT7 receptor (setting [2]) was 406 nM and 572 nM and 331 nM.

With `NC1=NCC2c3ccccc3Cc3ccccc3N12` (single isomer, unassigned; (+)) [Epinastine (+) Enantiomer, (+)-3-Amino-9,13b-dihydro-1H-dibenz-[c,f]-imidazo[1,5a]-azepine-hydrochloride], the Ki was 45 nM and 18 nM and 22 nM on rat 5HT7 receptor (setting [2]); 28 nM at rat 5HT7 receptor (setting [3]).

Take `NC1=NCC2c3ccccc3Cc3ccccc3N12` (racemic) [Epinastine, 3-amino-9,13b-dihydro-1H-dibenz[c,f]-imidazo[5,1-a]azepine hydrochloride]: in the test with Male Wistar rats (epinastine 10 μg/kg i.v., mean of 7 animals (control mean 1.25)), the “Quotient stimulated/non-stimulated side, mean” value was 0.98. Besides, in the test with Male Wistar rats (result in words), the “Evans blue extravasation induced by electrical stimulation of the trigeminal ganglion” value was “significantly reduced”. Moreover, the Ki is 27 nM and 41 nM and 30 nM on rat 5HT7 receptor (Measured Ki values, individual values of the three experiments); 33 nM on rat 5HT7 receptor (mean Ki value, mean of three experiments, 2.0 nM [3H] LSD, 60 minutes at 37° C.). Moreover, the “% Increase of pain threshold” value in test [1] (0.3 mg/kg p.o.) is 9.6%; in test [1] (1.0 mg/kg p.o.) it was 56.4%; in test [1] (3.0 mg/kg p.o.), 72.5%; in test [1] (10.0 mg/kg p.o.), 81.4%. The “Mean value of pain threshold” value in test [1] (0.3 mg/kg p.o.) was 164.8 g/hind paw; in test [1] (1.0 mg/kg p.o.) it was 235.2 g/hind paw; in test [1] (3.0 mg/kg p.o.), 259.4 g/hind paw; in test [1] (10.0 mg/kg p.o.), 272.8 g/hind paw. In test [1] (Rattus norvegicus, po, read-out: ED50, dose required to increase the pain threshold by 50%), the ED50 – broadly, the dose that gives a 50% effect, or the effect in half of the subjects – was determined as 1.1 mg/kg. Further, the “pain threshold in inflamed rat paw” value in test [1] (result in words) is “increased the pain threshold”.

(Values after US5942503A, “Use of Epinastine for the treatment of pain” (Boehringer Indelheim KG, priority 1995, dated 1999).)
